Measurements as given in patent US20240392251A1, “CULTURE MEDIUM AND CULTURE METHOD FOR LUNG CANCER EPITHELIAL CELLS, AND APPLICATION THEREOF” (PRECEDO PHARMACEUTICALS CO., LTD, priority 2021, published 2024).
Ends that are not written are not given here.

Assays:
Type in all cases: cell-based, human
[1] = system: lung cancer epithelial cells (Sample No. B26); experiment: Effects of different concentrations of the additive factors on proliferation of primary lung cancer cells; conditions: added to No. 8 medium lacking the factor; cell number ratio to Blank Control; FIGS. 3A-3H
Procedure: (§1) Extracellular matrix gel (Matrigel®) was diluted with serum-free DMEM/F12 medium at a ratio of 1:100 to prepare an extracellular matrix diluent. The extracellular matrix diluent was added to a 48-well culture plate with 200 μl/well to completely cover the bottom of the wells of the culture plate. The culture plate was let stand for 1 hour in a 37° C. incubator. After 1 hour, the extracellular matrix diluent was removed to provide a Matrigel-coated plate.
No. 8 culture medium for primary lung cancer epithelial cells was prepared.
Lung cancer epithelial cells derived from cancer tissues were isolated from the cancer tissue of a lung cancer patient (Sample No. B26) using the same method as in Example 1. Next, lung cancer epithelial cells derived from cancer tissues were counted with a flow imaging counter (JIMBIO FIL, Jiangsu Jimbio Technology Co., Ltd.) to get the total number of cells. Then, the cells were inoculated at a density of 4×10^4 cells/cm^2 in a 48-well plate which was coated with Matrigel®. […] of the prepared No. 8 culture medium for primary lung cancer epithelial cells was added to the 48-well plate, which was then placed in a 37° C., 5% CO2 incubator (purchased from Thermo Fisher) for culture. When the cells in the culture plate grew to cover about 80% of the bottom area, the supernatant of medium in the 48-well plate was discarded and 500 μl of 0.05% trypsin (purchased from Gibco) was added for cell digestion, which was then incubated at 37° C. for 10 minutes, until the cells were completely digested as observed under a microscope (EVOS M500, Invitrogen); then the digestion was terminated by using 1 ml of DMEM/F12 culture solution containing 5% (v/v) fetal bovine serum (purchased from ExCell Bio), 100 U/ml penicillin (purchased from Corning), and […] streptomycin (purchased from Corning); the resultant was collected into a 15 ml centrifuge tube and centrifuged at 1500 rpm for 4 minutes, and then the supernatant was discarded. The centrifuged cell pellet was resuspended in the basic medium BM and the cells were counted with a flow imaging counter (JIMBIO FIL, Jiangsu Jimbio Technology Co., Ltd.) to get the total number of cells. The obtained cells were used in the following cultivation experiments.
Next, the following 8 formulations of culture medium were prepared for experiments: • Formulation 1: No. 8 culture medium composition without B27 additive; • Formulation 2: No. 8 culture medium composition without fibroblast growth factor; • Formulation 3: No. 8 culture medium composition without transferrin; • Formulation 4: No. 8 culture medium composition without epidermal growth factor; • Formulation 5: No. 8 culture medium composition without Y27632; • Formulation 6: No. 8 culture medium composition without Compound 1; • Formulation 7: No. 8 culture medium composition without A83-01; • Formulation 8: No. 8 culture medium composition without gastrin.
The digested cell suspension was diluted with the above Formulations 1-8 respectively, and then inoculated into a 48-well plate at a volume of 250 μl with 10,000 cells per well.
When using the medium of Formulation 1, to a 48-well plate inoculated with primary cells was added the prepared B27 additive, with 250 μl per well, the final concentrations of B27 additive were 1:800, 1:400, 1:200, 1:100, 1:50, 1:25, respectively; a well of Blank Control (BC) was set using the medium of Formulation 1.
When using the medium of Formulation 2, to a 48-well plate inoculated with primary cells was added the prepared fibroblast growth factor, with 250 μl per well, the final concentrations of fibroblast growth factor were 80 ng/ml, 40 ng/ml, 20 ng/ml, 10 ng/ml, 5 ng/ml, 2.5 ng/ml, respectively; a well of Blank Control (BC) was set using the medium of Formulation 2. […]

[2] = system: lung cancer cells (No. B18); experiment: Effects of different factors added to basic medium BM on proliferation of primary lung cancer cells; conditions: factor added to BM at the concentrations of Table 3; 12 days of culture; FIGS. 1A-1D
Procedure: as §1, with “(Matrigel®) (manufactured by Corning)” for “(Matrigel®)”, “500” for “200”
Preparation of basic medium (abbreviated as BM): BM was prepared by adding 0.2 vol. % of Primocin (purchased from Invivogen, with a concentration of 50 mg/ml) to the commercial DMEM/F-12 medium to provide a final concentration of 100 μg/ml.
Next, different kinds and concentrations of additive factors (Table 3) were added to the basic medium (BM), so as to prepare culture mediums for lung cancer epithelial cells containing different additive components.
The culture mediums with different components were added at a volume of 500 μl/well to 48-well plates which were coated with extracellular matrix gel (Matrigel). Lung cancer cells (No. B18) isolated from lung cancer tissues according to the same method as described in Example 1 were inoculated at a cell density of 2×10^4 cells/cm^2 in the above-mentioned 48-well culture plates which were coated with Matrigel. After surface disinfection, the plates were placed in a 37° C., 5% CO2 incubator (purchased from Thermo Fisher), and the same number of freshly isolated lung cancer tumor cells (No. B18) were cultured under different medium formulations. The culture mediums were replaced every 4 days after the start of culture. After 12 days of culture, cell counts were performed. The basic medium (BM) without addition of any additive factor was used as a control. The ordinate in the figures represents the ratio of the number of cells obtained after culture in different mediums to the number of cells obtained after culture in basic medium BM.

[3] = system: Hippo pathway related proteins YAP and TAZ in the nucleus; experiment: Immunoblotting of Hippo pathway related proteins YAP and TAZ in the nucleus; conditions: B16 cells, FLM with Compound 1 versus FLM without Compound 1, 12 days; FIG. 10
Procedure: Freshly isolated primary lung cancer epithelial cell sample (No. B16) was obtained according to the steps described in Example 1. Then, the primary epithelial cells were inoculated onto a 6-well plate coated with Matrigel™. 3 mL of the culture medium FLM and 3 mL of the culture medium FLM without Compound 1 were respectively added to the wells inoculated with the aforementioned epithelial cells. The plate was placed in a 37° C., 5% CO2 incubator (purchased from Thermo Fisher) for culture. The culture mediums were changed every 4 days during the culture process. After 12 days of cultivation, cells of each group were collected and the […] of Compound 1 on Hippo pathway related proteins YAP and TAZ in the nucleus was detected using conventional immunoblotting method. Yes associated protein (YAP) and its homologous transcriptional co-activator PDZ-binding motif (TAZ) are key effectors in the Hippo pathway that control cell growth and organ size, and their dysregulation may lead to tumor development or hypertrophy. After activation, YAP/TAZ translocate to the nucleus and bind to TEAD transcription factors, promoting cell proliferation or regulated transcription process.

Compound	amount in the culture medium, most preferably [1]	effect on cell proliferation (ratio of number of cells to that in basic medium BM) [2]	expression of YAP and TAZ proteins in the nucleus [3]
CN1C(=O)C(c2c(F)cccc2F)N(C)c2nc(Nc3ccc(S(N)(=O)=O)cc3)ncc21 (stereo not shown) [Compound 1, 4-((7-(2,6-Difluorophenyl)-5,8-dimethyl-6-oxo-5,6,7,8-tetrahydropteridin-2-yl)amino)benzsulfamide]	5 µM	certain promoting effects on cell proliferation in specific concentration ranges	significant increase
Cc1cccc(-c2nn(C(=S)Nc3ccccc3)cc2-c2ccnc3ccccc23)n1 [Compound A83-01, reference compound]	0.5 µM	certain promoting effects on cell proliferation in specific concentration ranges	–
C[C@@H](N)[C@H]1CC[C@H](C(=O)Nc2ccncc2)CC1 [Compound Y27632, reference compound]	10 µM	certain promoting effects on cell proliferation in specific concentration ranges	–
fibroblast growth factor	10 ng/mL	certain promoting effects on cell proliferation in specific concentration ranges	–
gastrin: additive factor from Sino Biological Inc. (QGPWLEEEEEAYGWMDF; ends and bridges not checked; UniProt P01350 76-92, looked up)	10 ng/mL	certain promoting effects on cell proliferation in specific concentration ranges	–
transferrin: additive factor from Sino Biological Inc.	20 ng/mL	certain promoting effects on cell proliferation in specific concentration ranges	–
